Assay results: ChEMBL document CHEMBL4651402, “Screening of ~5500 FDA-approved drugs and clinical candidates for anti-SARS-CoV-2 activity” (2021)

Tested on: SARS-CoV-2
Assay: microbe, parasite or virus in culture
Details: Severe acute respiratory syndrome coronavirus 2, Vero C1008, 48 h

SMILES | IC50 [µM] | IC50 (read-out: pIC50 (converted)) [µM]
C[C@@H]1CN(Cc2ncccn2)C[C@H]1c1nc2c(cnn2C2CCOCC2)c(=O)[nH]1 [EDELINONTRINE] | > 20 | > 20
NCC1(CC(=O)O)CCCCC1 [GABAPENTIN] | > 20 | > 20
CC(=O)N[C@@H]1[C@@H](O[C@H](C)C(=O)O)[C@H](O)[C@@H](CO)O[C@@H]1O | > 20 | > 20
Cc1cccc(Cl)c1NC(=O)/C=C1\SCC(=O)N1C [RALITOLINE] | > 20 | > 20
Cc1ccn(-c2cc(Cl)ccc2[C@@H](Oc2cc(-c3ccc(C[C@H](N)C(=O)O)cc3)nc(N)n2)C(F)(F)F)n1 [TELOTRISTAT] | > 20 | > 20
CC[N+](C)(CC)CCOC(=O)C(O)(c1ccccc1)c1ccccc1 [METHYLBENACTYZIUM] | > 20 | > 20
c1cnc(N2CCN(Cc3ccc4c(c3)OCO4)CC2)nc1 [PIRIBEDIL] | > 20 | > 20
CC(=O)OCC(=O)[C@@]1(O)CC[C@H]2[C@@H]3CCC4=CC(=O)C=C[C@]4(C)[C@@]3(F)[C@@H](O)C[C@@]21C [ISOFLUPREDONE ACETATE] | > 20 | > 20
CC(O)(C(N)=O)c1ccccc1 (stereo unspecified) [ATROLACTAMIDE] | > 20 | > 20
CC(=O)Nc1ccc(OC(C)=O)cc1 [DIACETAMATE] | > 20 | > 20
[2H][C@]1(O)[C@@H](CO)O[C@@H](n2ccc(N)nc2=O)[C@]1(C)O | > 20 | > 20
CO[C@H]1/C=C\O[C@@]2(C)Oc3c(C)c(O)c4c(O)c(c(/C=N/N5CCN(C6CCCC6)CC5)c(O)c4c3C2=O)NC(=O)/C(C)=C\C=C/[C@H](C)[C@H](O)[C@@H](C)[C@@H](O)[C@@H](C)[C@H](OC(C)=O)[C@@H]1C | > 20 | > 20
CCN1/C(=C/C=C/C=C/c2sc3ccccc3[n+]2CC)Sc2ccccc21 [DITHIAZANINE IODIDE] | > 20 | > 20
[2H]C([2H])([2H])OCCCN1CCC(NC(=O)c2cc(Cl)c(N)c3c2OCC3)CC1 | > 20 | > 20
OC[C@H]1O[C@@H](n2cnc3c(NCc4ccco4)ncnc32)[C@H](O)[C@@H]1O [KINETIN RIBOSIDE] | > 20 | > 20
O=C1CN=C(c2ccccc2)c2c(sc3c2CCCC3)N1 [BENTAZEPAM] | > 20 | > 20
COc1cc(N)c(Cl)cc1C(=O)N[C@@H]1CCNC[C@@H]1OC [TICALOPRIDE] | > 20 | > 20
C=C1CC[C@H]2[C@@H](/C=C(/C)C(=O)[C@@]3(OC(C)=O)C[C@H](C)[C@H](OC(=O)c4ccccc4)[C@@H]3[C@H]1OC(C)=O)C2(C)C | > 20 | > 20
CC(=O)[C@@]1(O)CCC2C3C[C@H](C)C4=CC(=O)CCC4(C)C3CCC21C (stereo partly specified) | > 20 | > 20
CN(CCOc1ccc(NS(C)(=O)=O)cc1)CCc1ccc(NS(C)(=O)=O)cc1 [DOFETILIDE] | > 20 | > 20
Cc1cnc(C(=O)N[C@H]2CCCCC/C=C\[C@@H]3C[C@@]3(C(=O)NS(=O)(=O)C3CC3)NC(=O)[C@@H]3C[C@@H](Oc4nc5ccccc5c5ccccc45)CN3C2=O)cn1 | > 20 | > 20
CS(=N)(=O)CC[C@H](N)C(=O)O (stereo partly specified) | > 20 | > 20
CCOC(=O)Nc1ccc(SCC2CO[C@](Cn3ccnc3)(c3ccc(Cl)cc3Cl)O2)cc1 (stereo partly specified) | > 20 | > 20
N[C@@H](Cc1ccccc1)C(=O)O [PHENYLALANINE] | > 20 | > 20
O=c1n(CCCN2CCN(c3cccc(Cl)c3)CC2)nc2ccccn12 [TRAZODONE] | > 20 | > 20
O=c1cc2c(nn1-c1ccc(Cl)cc1)-c1ccccc1[S+]([O-])CC2 (stereo unspecified) | > 20 | > 20
O=C(/C=C/c1ccc(O)c(O)c1)c1ccc(O)cc1O [BUTEIN] | > 20 | > 20
N#CCC(=O)NN [CYACETACIDE] | > 20 | > 20
